Patent US8871777B2, “Phenylpyrimidone compounds, the pharmaceutical compositions, preparation methods and uses thereof” (Topharman Shanghai Co., Ltd., priority 2008, dated 2014)

How the values were obtained:
[1] = target: T1, PDE6 in bovine retina (Bos taurus, UniProt P11541+P23439); experiment: PDE6 enzyme inhibition activity test (scintillation proximity); format: biochemical; conditions: for IC50: PDE6 separated from bovine retina, read-out: PDE6 IC50; for PDE6 IC50/PDE5 IC50: selectivity, ratio of IC50 PDE6/IC50 PDE5
T1 construct: obtained by suitably treating various tissues and separating the enzyme with FPLC; from tissue; host or cells: bovine retina
T1 sequence (P11541 2-856 limits assumed): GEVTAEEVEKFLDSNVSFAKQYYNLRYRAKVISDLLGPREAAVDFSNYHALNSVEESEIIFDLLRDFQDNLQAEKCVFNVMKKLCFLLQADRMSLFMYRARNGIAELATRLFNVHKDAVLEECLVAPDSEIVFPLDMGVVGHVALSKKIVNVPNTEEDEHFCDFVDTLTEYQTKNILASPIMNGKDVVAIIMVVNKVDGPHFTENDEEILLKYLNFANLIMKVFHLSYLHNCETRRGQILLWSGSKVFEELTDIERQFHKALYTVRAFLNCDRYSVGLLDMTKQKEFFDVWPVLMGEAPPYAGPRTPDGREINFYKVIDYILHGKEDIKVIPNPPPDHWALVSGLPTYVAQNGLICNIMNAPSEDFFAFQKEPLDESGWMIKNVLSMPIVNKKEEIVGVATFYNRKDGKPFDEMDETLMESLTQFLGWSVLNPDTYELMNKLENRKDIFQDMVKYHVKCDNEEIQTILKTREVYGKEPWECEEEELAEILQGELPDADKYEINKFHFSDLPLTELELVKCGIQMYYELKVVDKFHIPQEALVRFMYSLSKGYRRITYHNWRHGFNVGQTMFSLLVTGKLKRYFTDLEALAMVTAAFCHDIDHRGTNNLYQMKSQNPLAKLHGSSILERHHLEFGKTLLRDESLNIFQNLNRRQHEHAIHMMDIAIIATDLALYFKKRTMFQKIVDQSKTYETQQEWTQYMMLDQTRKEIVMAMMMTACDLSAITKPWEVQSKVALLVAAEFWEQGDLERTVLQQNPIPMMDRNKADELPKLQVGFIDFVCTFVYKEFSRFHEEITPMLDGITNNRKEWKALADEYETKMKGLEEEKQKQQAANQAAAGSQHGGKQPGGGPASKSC
T1 sequence (P23439 2-850 limits assumed): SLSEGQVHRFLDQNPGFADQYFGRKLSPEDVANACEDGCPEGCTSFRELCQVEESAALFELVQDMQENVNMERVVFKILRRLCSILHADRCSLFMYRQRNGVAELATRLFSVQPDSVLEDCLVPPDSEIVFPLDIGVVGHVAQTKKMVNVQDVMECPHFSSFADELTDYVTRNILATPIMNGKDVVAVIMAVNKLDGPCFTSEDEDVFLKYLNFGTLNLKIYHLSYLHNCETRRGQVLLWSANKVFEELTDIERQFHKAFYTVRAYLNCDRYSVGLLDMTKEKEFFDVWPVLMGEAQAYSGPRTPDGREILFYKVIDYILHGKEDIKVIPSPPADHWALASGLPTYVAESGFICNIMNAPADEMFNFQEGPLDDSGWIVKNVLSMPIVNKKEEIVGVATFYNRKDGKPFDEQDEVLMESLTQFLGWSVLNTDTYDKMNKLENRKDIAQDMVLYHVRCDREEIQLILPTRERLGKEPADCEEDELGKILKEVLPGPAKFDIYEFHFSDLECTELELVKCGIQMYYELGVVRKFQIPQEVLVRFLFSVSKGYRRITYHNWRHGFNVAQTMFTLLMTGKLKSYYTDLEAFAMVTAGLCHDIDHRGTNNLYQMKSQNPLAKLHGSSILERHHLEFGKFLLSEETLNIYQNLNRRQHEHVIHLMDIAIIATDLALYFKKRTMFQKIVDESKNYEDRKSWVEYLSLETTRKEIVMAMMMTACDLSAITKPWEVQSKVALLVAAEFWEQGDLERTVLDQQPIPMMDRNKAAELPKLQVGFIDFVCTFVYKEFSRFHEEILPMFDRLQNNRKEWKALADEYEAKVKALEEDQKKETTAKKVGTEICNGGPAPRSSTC
Experimental: (§1) More specifically, PDE5 and PDE3 were obtained from human blood platelet, and PDE6 was separated from bovine retina. Upon enzyme was separated out, the enzyme inhibition activity test would be carried out immediately. The said enzyme inhibition activity test was performed by directly detecting the scintillation proximity of AMP/GMP using TRKQ7100 and TRKQ7090 kits, which was generally as follows. In the presence of different concentrations of inhibitor and a small amount of substrate, 10 μl of buffer (50 mM Tris/HCl PH 7.5, 8.3 mM MgCl2, 1.7 mM EGTA) was added, and then water was added to a final volume of 100 μl. The reaction was initiated with a fixed amount of enzyme, incubated at 30° C. for 30 min, and then quenched with 50 μl of yttrium silicate beads comprising zinc sulphate. After shaken for 20 min, the reaction mixture was put in dark and settled for 30 min, and then readed on a BECKMAN LS6500 MULTI-PURPOSE SCINTILLATION COUNTER.

[2] = target: T2, human blood platelet PDE5 (Homo sapiens, UniProt O76074); experiment: PDE5 enzyme inhibition activity test (scintillation proximity); format: biochemical
T2 construct: obtained by suitably treating various tissues and separating the enzyme with FPLC; from tissue; host or cells: human blood platelets
Experimental: as §1

SMILES | IC50 [1] | PDE6 IC50/PDE5 IC50 [1] | IC50 ([2]; PDE5 table) | IC50 ([2]; as repeated in the PDE6 table)
CCCOc1ccc(NS(C)(=O)=O)cc1-c1nc(CC)c(CC)c(=O)[nH]1 [Example 51, 5,6-Diethyl-2-(2-n-propoxy-5-mesylamidophenyl)pyrimid-4(3H)-one] | 34.8 nM | 28.3 | 1.23 nM | 1.23 nM
CCCOc1ccc(NC(C)=O)cc1-c1nc(C(C)C)c(Br)c(=O)[nH]1 [Example 52, N-(3-(1,6-dihydro-4-isopropyl-5-bromo-6-oxopyrimidin-2-yl)-4-propoxyphenyl)acetamide] | 52.6 nM | 36.0 | 1.46 nM | 1.46 nM
CCCOc1ccc(NC(C)=O)cc1-c1nc(CC)c(CC)c(=O)[nH]1 [Example 53, N-(3-(1,6-dihydro-4,5-diethyl-6-oxopyrimidin-2-yl)-4-propoxyphenyl)acetamide] | 36.8 nM | 66.2 | 0.57 nM | 0.57 nM
CCCOc1ccc(NC(=O)CC)cc1-c1nc(CC)c(CC)c(=O)[nH]1 [Example 54, N-(3-(1,6-dihydro-4,5-diethyl-6-oxopyrimidin-2-yl)-4-propoxyphenyl)propionamide] | 13.2 nM | 10.9 | 1.21 nM | 1.21 nM
CCCOc1ccc(NC(=O)C2CCCCC2)cc1-c1nc(CC)c(CC)c(=O)[nH]1 [Example 55, N-(3-(1,6-dihydro-4,5-diethyl-6-oxopyrimidin-2-yl)-4-propoxyphenyl)cyclohexamide] | 20.1 nM | 21.8 | 0.92 nM | 0.93 nM
CCCOc1ccc(NC(=O)C2CC(O)CN2C(=O)OC(C)(C)C)cc1-c1nc(CC)c(CC)c(=O)[nH]1 (centres unmarked) [Example 57, N-(3-(1,6-dihydro-4,5-diethyl-6-oxopyrimidin-2-yl)-4-propoxyphenyl)-1-t-butyloxycarbonyl-4-hydroxyprolylamide] | 8.19 nM | 6.9 | 1.19 nM | 1.19 nM
CCCOc1ccc(C(=O)N2CCOCC2)cc1-c1nc(CC)c(CC)c(=O)[nH]1 [Example 59, (Morpholin-1-yl)(3-(4,5-diethyl-1,6-dihydro-6-oxopyrimidin-2-yl)-4-n-propoxy)benzophenone] | 7.88 nM | 13.7 | 0.57 nM | 0.57 nM
CCCOc1ccc(C(=O)N2CCCCC2)cc1-c1nc(CC)c(CC)c(=O)[nH]1 [Example 60, (piperid-1-yl)(3-(4,5-diethyl-1,6-dihydro-6-oxopyrimidin-2-yl)-4-n-propoxy)benzophenone] | 8.19 nM | 4.0 | 2.04 nM | 2.04 nM
CCCOc1ccc(C(=O)N2CCCC2C(N)=O)cc1-c1nc(CC)c(CC)c(=O)[nH]1 (centres unmarked) [Example 61] | 29.1 nM | 15.1 | 1.93 nM | 1.93 nM
CCCOc1ccc(C(=O)N2CCOCC2)cc1-c1nc(C(C)C)c(Br)c(=O)[nH]1 [Example 63, (Morpholin-1-yl)(3-(4-isopropyl-5-bromo-1,6-dihydro-6-oxopyrimidin-2-yl)-4-n-propoxy)benzophenone] | 33.4 nM | 26.9 | 1.24 nM | 1.24 nM
CCCOc1ccc(NC(N)=O)cc1-c1nc(CC)c(CC)c(=O)[nH]1 [Example 67, 1-(3-(4,5-Diethyl-1,6-dihydro-6-oxopyrimidin-2-yl)-4-n-propoxyphenyl)urea] | 26.9 nM | 16.7 | 1.61 nM | 1.61 nM
CCCOc1ccc(NC(=O)NCC)cc1-c1nc(CC)c(CC)c(=O)[nH]1 [Example 68, 1-(3-(4,5-Diethyl-1,6-dihydro-6-oxopyrimidin-2-yl)-4-n-propoxyphenyl)-3-ethylurea] | 16.4 nM | 31.0 | 0.53 nM | 0.53 nM
CCCOc1ccc(C(=O)CN2CCOCC2)cc1-c1nc(CC)c(CC)c(=O)[nH]1 [Example 76, 5,6-diethyl-2-(5-(2-morpholinylacetyl)-2-n-propoxyphenyl)pyrimid-4(3H)-one] | 25.2 nM | 12.7 | 1.99 nM | 1.99 nM
CCCOc1ccc(C(=O)NCC(=O)OCC)cc1-c1nc(CC)c(CC)c(=O)[nH]1 [Example 89, Ethyl 2-(3-(4,5-diethyl-1,6-dihydro-6-oxopyrimidin-2-yl)-4-n-propoxybenzamido)acetate] | 11.7 nM | 5.88 | 1.98 nM | 1.98 nM
CCCOc1ccc(NC(=O)C(F)(F)F)cc1-c1nc(CC)c(CC)c(=O)[nH]1 [Example 98, N-(3-(4,5-diethyl-1,6-dihydro-6-oxopyrimidin-2-yl)-4-n-propoxyphenyl)-2,2,2-trifluoroacetamide] | 10.4 nM | 3.77 | 2.77 nM | 2.77 nM
CCCOc1ccc(NC(=O)CC(=O)OCC)cc1-c1nc(CC)c(CC)c(=O)[nH]1 [Example 102, ethyl N-(3-(4,5-diethyl-1,6-dihydro-6-oxopyrimidin-2-yl)-4-n-propoxyphenyl)aminoformylacetate] | 24.6 nM | 5.33 | 4.61 nM | 4.61 nM
CCCOc1ccc(NC(=O)CCCNC(C)=O)cc1-c1nc(CC)c(CC)c(=O)[nH]1 [Example 107, 4-Acetamido-N-(3-(4,5-diethyl-1,6-dihydro-6-oxopyrimidin-2-yl)-4-n-propoxyphenyl)butyramide] | 6.42 nM | 22.64 | 0.92 nM | 0.92 nM
CCCOc1ccc(NC(=O)C2CCCN2C(C)=O)cc1-c1nc(CC)c(CC)c(=O)[nH]1 (centres unmarked) [Example 108, 1-acetyl-N-(3-(4,5-diethyl-1,6-dihydro-6-oxopyrimidin-2-yl)-4-n-propoxyphenyl)pyrrolidinyl-2-formamide] | 5.73 nM | 6.99 | 0.54 nM | 0.54 nM
CCCOc1ccc(NC(=O)C(Cc2ccccc2)NC(C)=O)cc1-c1nc(CC)c(CC)c(=O)[nH]1 (centres unmarked) [Example 110, 2-acetamido-N-(3-(4,5-diethyl-1,6-dihydro-6-oxopyrimidin-2-yl)-4-n-propoxyphenyl)-3-phenylpropionamide] | 22.2 nM | 7.80 | 2.85 nM | 2.85 nM
CCCOc1ccc(NC(=O)C(N)=O)cc1-c1nc(CC)c(CC)c(=O)[nH]1 [Example 114, N^1-(3-(4,5-diethyl-1,6-dihydro-6-oxopyrimidin-2-yl)-4-n-propoxyphenyl)oxalamide] | 18.7 nM | 10.53 | 0.83 nM | 0.83 nM
